Assays:
Type in all cases: in vivo
Scirpus juncoides = assay: Test Example 1: herbicidal activity, application before weed generation in submerged conditions; conditions: Application herbicide amount 320 g/ha; Seventeenth Table
Procedure, shortened: (§1)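 Pre-emergence application to water surface of submerged pots (4 cm depth, alluvial soil) on sowing day, with 2.5-leaf rice transplanted; emulsion diluted to g/ha rates. Grown in greenhouse at 25–30 °C; 0–5 herbicidal/crop-effect score after three weeks.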

[1] = test system: Echinochloa oryzacola Vasing.; assay: as above; conditions: Application herbicide amount 320 g/ha; Seventeenth Table
Procedure, shortened: as §1

Monochoria vaginalis = assay: as above; conditions: Application herbicide amount 320 g/ha; Seventeenth Table
Procedure, shortened: as §1

Triticum aestivum = assay: Test Example 4: effect on crop by application to foliage (diluvial soil, plastic box); conditions: application to foliage, application herbicide amount 320 g/ha
Procedure, shortened: (§2)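 Plants were grown in sterilized diluvial soil in a greenhouse at 25-30° C for 14 days, then sprayed on stems and leaves with water-diluted emulsion formulation at set rates in g/ha. Weed control and crop injury were scored 3 weeks after treatment on a 0-5 herbicidal-ratio scale, from 0 (≤5%) to 5 (≥90%).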

[2] = test system: directly sowed Oryza sativa; assay: as above; conditions: application to foliage, application herbicide amount 320 g/ha
Procedure, shortened: as §2

Glycine max = assay: as above; conditions: application to foliage, application herbicide amount 320 g/ha
Procedure, shortened: as §2

[3] = test system: Beta vulgaris ssp. vulgaris; assay: as above; conditions: application to foliage, application herbicide amount 320 g/ha
Procedure, shortened: as §2

Brassica campestris L. = assay: as above; conditions: application to foliage, application herbicide amount 320 g/ha
Procedure, shortened: as §2

Zea mays = assay: as above; conditions: application to foliage, application herbicide amount 320 g/ha
Procedure, shortened: as §2

Galium spurium = assay: Test Example 4: herbicidal effect by application to foliage (diluvial soil, plastic box); conditions: application to foliage, application herbicide amount 320 g/ha
Procedure, shortened: as §2

Chenopodium album = assay: as above; conditions: application to foliage, application herbicide amount 320 g/ha
Procedure, shortened: as §2

Alopecurus myosuroides = assay: as above; conditions: application to foliage, application herbicide amount 320 g/ha
Procedure, shortened: as §2

Stellaria media = assay: as above; conditions: application to foliage, application herbicide amount 320 g/ha
Procedure, shortened: as §2

Lolium multiflorum Lam. = assay: as above; conditions: application to foliage, application herbicide amount 320 g/ha
Procedure, shortened: as §2

Abutilon theophrasti = assay: as above; conditions: application to foliage, application herbicide amount 320 g/ha
Procedure, shortened: as §2

Veronica persica = assay: as above; conditions: application to foliage, application herbicide amount 320 g/ha
Procedure, shortened: as §2

Setaria viridis = assay: as above; conditions: application to foliage, application herbicide amount 320 g/ha
Procedure, shortened: as §2

Amaranthus retroflexus = assay: as above; conditions: application to foliage, application herbicide amount 320 g/ha
Procedure, shortened: as §2

Digitaria ciliaris = assay: as above; conditions: application to foliage, application herbicide amount 320 g/ha
Procedure, shortened: as §2

[4] = test system: Echinochloa crus-galli var. crus-galli; assay: as above; conditions: application to foliage, application herbicide amount 320 g/ha
Procedure, shortened: as §2

Apera spica-venti. = assay: as above; conditions: application to foliage, application herbicide amount 320 g/ha
Procedure, shortened: as §2

Avena fatua = assay: as above; conditions: application to foliage, application herbicide amount 320 g/ha
Procedure, shortened: as §2

| Structure (SMILES) | B: Scirpus juncoides (herbicidal effect grade) (Scirpus juncoides) | A: Echinochloa oryzicola Vasing. (herbicidal effect grade) [1] | C: Monochoria vaginalis (herbicidal effect grade) (Monochoria vaginalis) | e: effect on crop, Triticum aestivum (Triticum aestivum) | b: effect on crop, directly sowed Oryza sativa [2] | d: effect on crop, Glycine max (Glycine max) | f: effect on crop, Beta vulgaris ssp. vulgaris [3] | g: effect on crop, Brassica campestris L. (Brassica campestris L.) | c: effect on crop, Zea mays (Zea mays) | Q: herbicidal effect on Galium spurium (Galium spurium) | O: herbicidal effect on Chenopodium album (Chenopodium album) | J: herbicidal effect on Alopecurus myosuroides (Alopecurus myosuroides) | P: herbicidal effect on Stellaria media (Stellaria media) | K: herbicidal effect on Lolium multiflorum Lam. (Lolium multiflorum Lam.) | M: herbicidal effect on Abutilon theophrasti (Abutilon theophrasti) | R: herbicidal effect on Veronica persica (Veronica persica) | G: herbicidal effect on Setaria viridis (Setaria viridis) | N: herbicidal effect on Amaranthus retroflexus (Amaranthus retroflexus) | F: herbicidal effect on Digitaria ciliaris (Digitaria ciliaris) | H: herbicidal effect on Echinochloa crus-galli var. crus-galli [4] | other results |
| --- | --- | --- | --- | --- | --- | --- | --- | --- | --- | --- | --- | --- | --- | --- | --- | --- | --- | --- | --- | --- | --- |
| Cc1cc(-c2nnc3c(C(=O)Nc4nnnn4C)ccc(C(F)(F)F)n23)no1 [2-017] | 3 (Herbicidal ratio of 40% or more and less than 70%) | 5 (Herbicidal ratio of 90% or more (almost completely withered)) | 4 (Herbicidal ratio of 70% or more and less than 90%) | 3 (Herbicidal ratio of 40% or more and less than 70%) | 5 (Herbicidal ratio of 90% or more (almost completely withered)) | 4 (Herbicidal ratio of 70% or more and less than 90%) | 5 (Herbicidal ratio of 90% or more (almost completely withered)) | 4 (Herbicidal ratio of 70% or more and less than 90%) | 1 (Herbicidal ratio of 5% or more and less than 20%) | 1 (Herbicidal ratio of 5% or more and less than 20%) | 5 (Herbicidal ratio of 90% or more (almost completely withered)) | 3 (Herbicidal ratio of 40% or more and less than 70%) | 5 (Herbicidal ratio of 90% or more (almost completely withered)) | 2 (Herbicidal ratio of 20% or more and less than 40%) | 5 (Herbicidal ratio of 90% or more (almost completely withered)) | 5 (Herbicidal ratio of 90% or more (almost completely withered)) | 5 (Herbicidal ratio of 90% or more (almost completely withered)) | 5 (Herbicidal ratio of 90% or more (almost completely withered)) | 5 (Herbicidal ratio of 90% or more (almost completely withered)) | 5 (Herbicidal ratio of 90% or more (almost completely withered)) | L: herbicidal effect on Apera spica-venti. (Apera spica-venti.): 4 (Herbicidal ratio of 70% or more and less than 90%); I: herbicidal effect on Avena fatua (Avena fatua): 4 (Herbicidal ratio of 70% or more and less than 90%) |
| CCCc1nnc2c(C(=O)Nc3nnnn3C)ccc(C(F)(F)F)n12 [2-019] | 5 (Herbicidal ratio of 90% or more (almost completely withered)) | 5 (Herbicidal ratio of 90% or more (almost completely withered)) | 4 (Herbicidal ratio of 70% or more and less than 90%) | 3 (Herbicidal ratio of 40% or more and less than 70%) | 4 (Herbicidal ratio of 70% or more and less than 90%) | 4 (Herbicidal ratio of 70% or more and less than 90%) | 5 (Herbicidal ratio of 90% or more (almost completely withered)) | 4 (Herbicidal ratio of 70% or more and less than 90%) | 0 (Herbicidal ratio of 5% or less (almost no effect)) | 3 (Herbicidal ratio of 40% or more and less than 70%) | 5 (Herbicidal ratio of 90% or more (almost completely withered)) | 2 (Herbicidal ratio of 20% or more and less than 40%) | 5 (Herbicidal ratio of 90% or more (almost completely withered)) | 2 (Herbicidal ratio of 20% or more and less than 40%) | 5 (Herbicidal ratio of 90% or more (almost completely withered)) | 5 (Herbicidal ratio of 90% or more (almost completely withered)) | 5 (Herbicidal ratio of 90% or more (almost completely withered)) | 5 (Herbicidal ratio of 90% or more (almost completely withered)) | 5 (Herbicidal ratio of 90% or more (almost completely withered)) | 5 (Herbicidal ratio of 90% or more (almost completely withered)) | L: herbicidal effect on Apera spica-venti. (Apera spica-venti.): 4 (Herbicidal ratio of 70% or more and less than 90%); I: herbicidal effect on Avena fatua (Avena fatua): 3 (Herbicidal ratio of 40% or more and less than 70%) |
| Cn1nnnc1NC(=O)c1ccc(C(F)(F)F)n2c(COc3ccccc3)nnc12 [2-020] | 2 (Herbicidal ratio of 20% or more and less than 40%) | 3 (Herbicidal ratio of 40% or more and less than 70%) | 2 (Herbicidal ratio of 20% or more and less than 40%) | 1 (Herbicidal ratio of 5% or more and less than 20%) | 2 (Herbicidal ratio of 20% or more and less than 40%) | 3 (Herbicidal ratio of 40% or more and less than 70%) | 5 (Herbicidal ratio of 90% or more (almost completely withered)) | 3 (Herbicidal ratio of 40% or more and less than 70%) | 0 (Herbicidal ratio of 5% or less (almost no effect)) | 2 (Herbicidal ratio of 20% or more and less than 40%) | 5 (Herbicidal ratio of 90% or more (almost completely withered)) | 0 (Herbicidal ratio of 5% or less (almost no effect)) | 4 (Herbicidal ratio of 70% or more and less than 90%) | 1 (Herbicidal ratio of 5% or more and less than 20%) | 5 (Herbicidal ratio of 90% or more (almost completely withered)) | 4 (Herbicidal ratio of 70% or more and less than 90%) | 3 (Herbicidal ratio of 40% or more and less than 70%) | 4 (Herbicidal ratio of 70% or more and less than 90%) | 3 (Herbicidal ratio of 40% or more and less than 70%) | 3 (Herbicidal ratio of 40% or more and less than 70%) | L: herbicidal effect on Apera spica-venti. (Apera spica-venti.): 1 (Herbicidal ratio of 5% or more and less than 20%); I: herbicidal effect on Avena fatua (Avena fatua): 1 (Herbicidal ratio of 5% or more and less than 20%) |
